Measurements from patent publication US20170143835A1, “SUBSTITUTED ANIONIC COMPOUNDS CONSISTING OF A BACKBONE MADE UP OF A DISCRETE NUMBER OF SACCHARIDE UNITS” (ADOCIA, priority 2012, published 2017).

Experiments:
serum albumin (BSA) = serum albumin (BSA) (Bos taurus, UniProt P02769); assay: Fluorescence test for interaction with albumin; assay type: binding, bovine; settings: for Result F/F0 <0.5: compound/BSA weight ratio 1, excitation 280 nm, emission 350 nm; for Result F/F0 <0.5 / Result F/F0 <0.85: BSA 0.5 mg/ml, PBS pH 7.4
Description: The test carried out is a “fluorescence” test with albumin, which makes it posible, by measuring the variations in fluorescence of albumin, to verify whether an interaction exists between the compound tested and albumin.
The compound/albumin solutions are prepared from stock solutions of compounds and of serum albumin (BSA) by mixing the appropriate volumes in order to obtain a fixed BSA concentration at 0.5 mg/ml and compound/BSA weight ratios of 1, 5 and 10. These solutions are prepared in a PBS buffer at pH 7.4.
200 μl of the various compound/BSA solutions are introduced into a 96-well plate. The fluorescence measurements are carried out at room temperature (20° C.) with an EnVision® fluorescence spectrometer (PerkinElmer). The excitation wavelength is 280 nm and the emission wavelength is 350 nm. This corresponds to the fluorescence of the tryptophan residues of albumin (Ruiz-Peña M. et al., M, A. Physico-chemical studies of molecular interactions between non-ionic surfactants and bovine serum albumin, Colloids Surf. B Biointerfaces 2010, 75, 282-289). The F (compound/BSA)/F0 (BSA alone) ratio makes it possible to evaluate the interaction between the compound and albumin. If this ratio is less than 1, this means that the compound induces partial quenching of the albumin fluorescence linked to a change in environment of the tryptophan residues. This change reflects an interaction between the compound and albumin. It was verified, as a control, that, for all the compounds tested, the fluorescence of the compound alone is negligible considering the fluorescence of albumin (fluorescence (compound) <2% fluorescence (albumin)).

lysozyme = biological target: T1, lysozyme (Gallus gallus, UniProt P00698); assay: Turbidity measurement assays of compound/lysozyme solutions; assay type: physicochemical; settings: for Turbidity of the solutions at the molar ratio 0.1: compound/lysozyme molar ratio 0.1; for Turbidity of the solutions at the molar ratio 0.1 / Turbidity of the solutions at the molar ratio 0.5: histidine buffer pH 6.2, NaCl, HACH 2100AN turbidity meter; for Turbidity of the solutions at the molar ratio 0.5: compound/lysozyme molar ratio 0.5; for turbidity of the compound/lysozyme solution compared with the counterexample/lysozyme solutions: whatever the ratio
T1 construct: purchased Sigma-Aldrich L6876
Description: The turbidity of solutions in which a “model” protein, lysozyme and either a compound according to the invention or a counterexample compound are brought together is analyzed in the compound/lysozyme molar ratios of 0, 0.1 and 0.5.
The following solutions are prepared beforehand: histidine buffer solution, pH 6.2±0.1, at 194 mM (30 mg/ml), sodium chloride (NaCl) solution at 5017 mM (293 mg/ml), solution of lysozyme (Sigma-Aldrich, Ref L6876, CAS#12650-88-3) at […] ([…]), and solutions of each of the test products (pH 6.2±0.1), i.e. compounds according to the invention and counterexamples.
For each of the solutions of compounds to be prepared, 3 ml of an aqueous solution of compound are adjusted to pH 6.2±0.1 using 50±25 μl of a 0.1N hydrochloric acid (HCl) solution.
The test solutions at the compound/lysozyme molar ratios: 0, 0.1 and 0.5 are then prepared as follows.
The sodium chloride (NaCl) solution at 5017 mM, the histidine buffer solution at 194 mM and then the solution of compound are successively added to water, which results in a mixture which is homogenized on a roller mixer (Stuart Roller Mixer SRT9D) for 1 minute.
The lysozyme solution is, finally, added and then the final mixture is homogenized on the roller mixer for 1 minute.
The turbidity (expressed in NTU) for each of the final test solutions is measured using a HACH 2100AN turbidity meter.
The turbidity of the compound 1/lysozyme solution is analyzed in comparison with that of the counterexample A1/lysozyme and counterexample A2/lysozyme solutions. The turbidity of the compound 13/lysozyme solution is analyzed in comparison with that of the counterexample B1/lysozyme and counterexample B2/lysozyme solutions.

Sequence of serum albumin (BSA) (P02769 25-607): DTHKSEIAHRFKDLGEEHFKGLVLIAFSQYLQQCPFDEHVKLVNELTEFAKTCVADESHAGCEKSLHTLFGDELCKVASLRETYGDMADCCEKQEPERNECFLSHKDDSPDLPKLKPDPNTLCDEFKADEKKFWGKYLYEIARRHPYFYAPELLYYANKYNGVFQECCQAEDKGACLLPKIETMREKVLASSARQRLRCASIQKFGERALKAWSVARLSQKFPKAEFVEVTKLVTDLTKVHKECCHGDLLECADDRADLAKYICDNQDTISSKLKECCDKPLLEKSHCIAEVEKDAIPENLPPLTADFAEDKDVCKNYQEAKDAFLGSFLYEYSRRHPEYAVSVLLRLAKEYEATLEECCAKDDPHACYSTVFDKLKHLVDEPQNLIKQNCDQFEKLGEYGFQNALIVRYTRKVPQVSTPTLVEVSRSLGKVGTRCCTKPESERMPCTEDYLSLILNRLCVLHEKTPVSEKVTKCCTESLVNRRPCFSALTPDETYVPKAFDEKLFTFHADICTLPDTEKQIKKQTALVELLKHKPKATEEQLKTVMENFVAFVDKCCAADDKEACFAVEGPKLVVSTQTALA
T1 sequence (P00698 19-147): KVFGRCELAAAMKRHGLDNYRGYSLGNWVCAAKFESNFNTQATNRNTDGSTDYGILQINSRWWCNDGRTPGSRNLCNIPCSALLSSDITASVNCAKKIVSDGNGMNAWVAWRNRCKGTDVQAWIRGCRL

Substance: Sodium maltotriosemethylcarboxylate Functionalized with 2-[(2octanoylamino-6-octanoylamino)hexanoylamino]ethanamine [Compound 27]
- Result F/F0 <0.5 (serum albumin (BSA)): YES

Substance: Sodium maltotriosemethylcarboxylate Functionalized with L-phenylalanine [Compound 1]
- Turbidity of the solutions at the molar ratio 0.1 (lysozyme): 55 NTU
- Turbidity of the solutions at the molar ratio 0.5 (lysozyme): 4.8 NTU
- turbidity of the compound/lysozyme solution compared with the counterexample/lysozyme solutions (lysozyme): lower

Substance: Sodium maltotriosemethylcarboxylate Functionalized with 2-aminoethyl dodecanoate [Compound 29]
- Result F/F0 <0.5 (serum albumin (BSA)): YES

Substance: Sodium maltotriosesuccinate Functionalized with dilauryl aspartate [Compound 22]
- Result F/F0 <0.5 (serum albumin (BSA)): YES

Substance: Sodium maltotriosemethylcarboxylate Functionalized with 2-[(2-dodecanoylamino-6-dodecanoylamino)hexanoylamino]ethanamine [Compound 20]
- Result F/F0 <0.5 (serum albumin (BSA)): YES

Substance: Sodium maltotriosemethylcarboxylate Functionalized with decanoyl glycinate [Compound 23]
- Result F/F0 <0.5 (serum albumin (BSA)): YES

Substance: Sodium maltotriosemethylcarboxylate Functionalized with L-phenylalanine [Compound 2]
- Result F/F0 <0.85 (serum albumin (BSA); compound/BSA weight ratio 5): YES
- Result F/F0 <0.85 (serum albumin (BSA); compound/BSA weight ratio 10): YES
- fluorescence ratio F/F0 (serum albumin (BSA); compound/BSA weight ratio of 5): < 0.85
- fluorescence ratio F/F0 (serum albumin (BSA); compound/BSA weight ratio of 10): < 0.85

Substance: Sodium maltotriosemethylcarboxylate Functionalized with N-(2-aminoethyl)dodecanamide [Compound 21]
- Result F/F0 <0.5 (serum albumin (BSA)): YES

Substance: Sodium maltotriosemethylcarboxylate Functionalized with 3,7-dimethyloctanoyl phenylalaninate [Compound 30]
- Result F/F0 <0.5 (serum albumin (BSA)): YES

Substance: Sodium maltotriosemethylcarboxylate Functionalized with cholesteryl leucinate [Compound 13]
- Turbidity of the solutions at the molar ratio 0.1 (lysozyme): 32 NTU
- Turbidity of the solutions at the molar ratio 0.5 (lysozyme): 395 NTU
- turbidity of the compound/lysozyme solution compared with the counterexample/lysozyme solutions (lysozyme): lower
